Laboratory results taken from patent publication US8796327B2, “Method for inhibiting production of cytokines of T helper cell type II and/or inhibiting production of chemokines using brazilin” (China Medical University, priority 2010, dated 2014).

What was measured:
IL-4 [1] = assay: ELISA of IL-4 in supernatant of EL-4 T lymphoma cells; assay type: cell-based, mouse; conditions: EL-4 cells
Description: First, in an incubator containing 5 vol % of CO2 at 37° C., EL-4 mouse T lymphoma cells (commercially available from ATCC, Manassas, Va., America) were cultured in the DMEM culture medium (containing 10 wt % of thermally deactivated FBS), and were sub-cultured at a ratio of 1:3.
(§1) Then, at a density of 5×10^5 counts/ml, the T lymphoma cells were bred in a six-well culture dish, and at the 0th minute, brazilin of different concentrations (0.3, 1, 3, 10, or 30 micromole (μM)) was added into the cell culture solution at an amount of 1 μl/ml-cell culture solution. Then, the cells were put into the incubator to be cultured therein. 30 minutes later, at an amount of 1 μl/ml-cell culture solution, 5 μg/ml PMA and cAMP at a 250 mmol concentration were added to the cell culture solution to stimulate the expression of IL-4 and IL-5 of the T lymphoma cells. During the process of cell culture, the trypan blue exclusion assay was employed to observe effect of the brazilin on the cell viability, results of which are shown in Table 1 and FIG. 1.
At 4° C., the T lymphoma cells obtained from Experiment A were centrifugally rotated at a rotational speed of 1000 rpm and at 4° C. for 5 minutes, and the supernatant was collected and analyzed for cytokines.
An enzyme-linked immunosorbent assay (ELISA) kit (commercially available from R&D Systems, Inc., America) was used to analyze the expression of IFN-γ, IL-4, IL-5, and eotaxin cytokines in the aforesaid supernatant, results of which are shown in Table 2, Table 3, FIG. 2, and FIG. 3.
In Experiment B and the following Experiment C, all experimental data are presented in form of “mean±standard deviation”, and statistical discrepancy was analyzed by means of the One-way ANOVA and Newman-keuls post-hoc tests, in which it is considered that there is statistical discrepancy if p<0.05.

IL-4 mRNA = assay: Real-time PCR of IL-4 mRNA in EL-4 T lymphoma cells; assay type: cell-based, mouse; conditions: for Expression level of IL-4 mRNA: PMA + cAMP stimulated EL-4 cells, corrected to HPRT
Description: as §1
(§2) Expression of mRNA of IL-4, IL-5, GATA-3, c-maf, and T-bet were analyzed in a quantitative way through real-time polymerase chain reaction (PCR) by extracting RNA in the cells obtained in Experiment A (using an RNA purifying kit), converting the RNA into cDNA through reverse transcription, and using an ABI PRISM 7700 sequence detector (Applied Biosystems, Foster City, Calif., America) to analyze the gene expression of mRNA. The PCR was carried out under the following conditions: 50° C., 2 minutes; 95° C., 10 minutes; 60° C., 1 minute; then repeating this cycle forty times. A threshold cycle (or referred to as Ct) was used to represent the expression level of each gene, and an expression level of hypoxanthine-guanine phosphoribosy transferase (HPRT) genes of the endogenous control group was used for correction of the expression level of mRNA.

T-bet mRNA = assay: Real-time PCR of T-bet mRNA in EL-4 T lymphoma cells; assay type: cell-based, mouse; conditions: for Expression level of T-bet mRNA: PMA + cAMP stimulated EL-4 cells, corrected to HPRT
Description: as §1, §2

IL-4 [2] = assay: ELISA of IL-4 in bronochial alveolar lavage fluid, mice with asthma (OVA); assay type: in vivo, BALB/c mice; conditions: for IL-4 concentration (pico-gram/ml): i.p. or i.t., OVA-sensitized BALB/c mice
Description: (§3) In Example 2, mice with asthma were used to conduct in vivo experiments, and ovalbumin (OVA) was used as an allergen.
(§4) The mice were sensitized (or challenged) according to the steps shown in FIG. 9 (see Lee et al., Lentiviral-mediated GATA-3 RNAi decreases allergic airway inflammation and hyperresponsiveness. Molecular Therapy, 2008; 16:60-65, which is incorporated herein in its entirety by reference). First, 50 μg OVA (using 2 mg alumina (Alum, Alumlmuject, Pierce Chemical, Rockford, Ill., USA) as an adjuvant) was injected into six to eight-week-old BALB/c female mice (from National Laboratory Animal Center, Taiwan) by intraperitoneal injection (i.p.). At 0th, 14th, and 28th day, the mice were injected with OVA at the same dosage. Before the administration of OVA at the forty-first and the forty-second days, different dosages of brazilin (high dose: 430 μg/mice; low dose: 43 μg/mice) were administrated to the mice by intraperitoneal injection (i.p.) or intratracheal instillation (i.t.). During the fortieth to the forty-second days, 100 μg OVA was dissolved in 40 μl PBS, and was administrated to the mice by intranasal instillation (i.n.) (once everyday, for three days). At the forty-third day, airway hyperresponsiveness of the mice was observed. […]
(§5) In Experiment D, after 24 hours from the last administration of OVA into the noses of the mice, the mice were sacrificed, and the blood was collected from the orbital cavities of the mice. […] Cells obtained after the centrifugation were re-suspended in a 1 ml HBSS buffer solution, and the total cell number was counted with a hemocytometer.
(§6) The bronochial alveolar lavage fluid collected in Experiment E was centrifuged at 4° C. and with a revolution speed of 400 g for 10 minutes. After the supernatant was collected, the expression of eotaxin, IL-4, IL-5, and IFN-γ was analyzed with an ELISA kit (R&D Systems, Inc., USA). […]

IFN-γ = assay: ELISA of IFN-γ in bronochial alveolar lavage fluid, mice with asthma (OVA); assay type: in vivo, BALB/c mice; conditions: for IFN-γ concentration (pico-gram/ml): i.p. or i.t., OVA-sensitized BALB/c mice
Description: as §3, §4, §5, §6

IL-4 [3] = assay: ELISA of IL-4 in supernatant of EL-4 T lymphoma cells; assay type: cell-based, mouse; conditions: EL-4 cells, no PMA + cAMP

Oc1ccc2c(c1)OC[C@]1(O)Cc3cc(O)c(O)cc3[C@H]21 [brazilin]
expression of protein of IL-4 cytokine (IL-4 [1]; result in words): inhibited
Concentration of IL-4 (pico-gram/ml) (IL-4 [1]; brazilin 0.3 μM + PMA + cAMP): 23.93 ± 2.214 pico-gram/ml
Concentration of IL-4 (pico-gram/ml) (IL-4 [1]; brazilin 1 μM + PMA + cAMP): 22.49 ± 1.969 pico-gram/ml
Concentration of IL-4 (pico-gram/ml) (IL-4 [1]; brazilin 3 μM + PMA + cAMP): 23.45 ± 2.693 pico-gram/ml
Concentration of IL-4 (pico-gram/ml) (IL-4 [1]; brazilin 10 μM + PMA + cAMP): 23.13 ± 2.297 pico-gram/ml
Concentration of IL-4 (pico-gram/ml) (IL-4 [1]; brazilin 30 μM + PMA + cAMP): 18.71 ± 1.206 pico-gram/ml
expression of mRNA of IL-4 (IL-4 mRNA; EL-4 cells, result in words): inhibited
Expression level of IL-4 mRNA (IL-4 mRNA; brazilin 0.3 μM): 2.228 ± 0.4786
Expression level of IL-4 mRNA (IL-4 mRNA; brazilin 1 μM): 2.028 ± 0.1794
Expression level of IL-4 mRNA (IL-4 mRNA; brazilin 3 μM): 2.136 ± 0.2671
Expression level of IL-4 mRNA (IL-4 mRNA; brazilin 10 μM): 1.835 ± 0.2712
Expression level of IL-4 mRNA (IL-4 mRNA; brazilin 30 μM): 1.478 ± 0.1441
expression of mRNA of transcription factor T-bet (T-bet mRNA; EL-4 cells, result in words): did not inhibit
Expression level of T-bet mRNA (T-bet mRNA; brazilin 0.3 μM): 1.073 ± 0.1762
Expression level of T-bet mRNA (T-bet mRNA; brazilin 1 μM): 1.036 ± 0.1666
Expression level of T-bet mRNA (T-bet mRNA; brazilin 3 μM): 1.052 ± 0.09226
Expression level of T-bet mRNA (T-bet mRNA; brazilin 10 μM): 1.068 ± 0.1171
Expression level of T-bet mRNA (T-bet mRNA; brazilin 30 μM): 1.054 ± 0.05147
production of IL-4 cytokine (IL-4 [2]; BALB/c mice, result in words): inhibited
IL-4 concentration (pico-gram/ml) (IL-4 [2]; High dose (430 μg/mice)): 23.01 ± 2.327 pico-gram/ml
IL-4 concentration (pico-gram/ml) (IL-4 [2]; Low dose (43 μg/mice)): 36.76 ± 5.490 pico-gram/ml
effect on IFN-γ cytokine of Th1 cells (IFN-γ; BALB/c mice, result in words): no effect
IFN-γ concentration (pico-gram/ml) (IFN-γ; High dose (430 μg/mice)): 4.288 ± 0.868 pico-gram/ml
IFN-γ concentration (pico-gram/ml) (IFN-γ; Low dose (43 μg/mice)): 3.598 ± 1.218 pico-gram/ml
Concentration of IL-4 (pico-gram/ml) (IL-4 [3]; brazilin 0.3 μM): 2.569 ± 0.1160 pico-gram/ml
Concentration of IL-4 (pico-gram/ml) (IL-4 [3]; brazilin 1 μM): 5.353 ± 1.276 pico-gram/ml
Concentration of IL-4 (pico-gram/ml) (IL-4 [3]; brazilin 3 μM): 5.469 ± 0.1160 pico-gram/ml
Concentration of IL-4 (pico-gram/ml) (IL-4 [3]; brazilin 10 μM): 7.093 ± 0.3480 pico-gram/ml
Concentration of IL-4 (pico-gram/ml) (IL-4 [3]; brazilin 30 μM): 4.715 ± 0.9859 pico-gram/ml
